Laboratory results from PMC12067741, “Inhibition of SOD1 trimerization is a novel drug target for ALS disease” (Translational Neurodegeneration, 2025).
“Also recorded” adds a separate entry of the source.

How the values were obtained:
SOD1^G93A−Tg mice = assay: Efficacy of oral (p.o., ASD) administration in SOD1G93A-Tg ALS mice
Procedure: For mice with p.o. injection, the mice were trained for 2 weeks from the age of 7 weeks, and the rotarod test was performed from 9 weeks. Age-matched WT mice were tested as positive control. […] Mouse movement was recorded. The recorded video file was further analyzed using the EthoVision XT 15 software (Noldus, Wageningen, Netherlands).

[1] = tested on: WT-SOD1 (Azurite, mCherry2) and MT (G93A)-SOD1 (GFP); assay: Co-inclusion of three colour variants of SOD1 in SK-N-SH cells; assay type: cell-based; conditions: PRG-A-04 5 μmol/L, 24 h
Procedure: Cells with SOD1 aggregation were counted in the fluorescent images. Depending on the intensity of SOD1, cells with SOD1 aggregates were counted in randomly selected fields and quantified as a percentage to the total cells counted. In addition, to calculate the colocalization of the three colors of SOD1, we counted the cells where the three colored images overlapped at a point of high intensity. Cell counting was performed by three independent observers, who were blinded to the transfection or chemical treatment group.
Fig. 2 PRG-A-04 suppresses SOD1 aggregation through targeting trimeric SOD1. a-b SOD1 trimer destabilizer inhibited MT-SOD1 aggregation. (a) SOD1 (GFP) expression was observed under fluorescence microscope (white arrows; strong intensity of SOD1). Scale bar, 10 μm. EV, empty vector. (b) SOD1 inclusion-positive cells (white arrows; strong intensity of SOD1) were counted and the percentages are shown as mean ± SD. c PRG-A-04 reduced SOD1 oligomerization induced by SOD1 trimer stabilizer (G147P). d-g PRG-A-04 directly bound to the mutant form of SOD1. […] (g) For quantitative analysis, the number of PRG-A-04 molecules per 100 SOD1 molecules was counted. […] (i) Cells with WT and MT-SOD1 co-inclusions were counted and the percentages are shown as mean ± SD. For cell counting, five fluorescence images were randomly selected. […]

[2] = Metabolic stability in liver microsomes; assay type: in vitro ADME; conditions: cynomolgus monkey liver microsomes
[3] = target: T1, GST-SOD1-G93A recombinant protein (MT-SOD1) (Homo sapiens, UniProt P00441, G94A); assay: GST pull-down with LC-MS/MS of protein-bound compound; assay type: binding; conditions: GST pull-down and LC-MS/MS
T1 construct: made in house; host or cells: Escherichia coli BL21 (DE3), pCold GST vector
T1 sequence (P00441 whole entry G94A): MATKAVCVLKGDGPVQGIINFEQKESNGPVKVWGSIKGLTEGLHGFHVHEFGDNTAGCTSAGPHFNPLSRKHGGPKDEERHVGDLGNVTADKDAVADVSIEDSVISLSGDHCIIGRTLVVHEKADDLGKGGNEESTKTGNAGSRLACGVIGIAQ
Procedure: To prepare a calibration curve within the PRG-A-04 concentration range of 1–50 ppb, standard solutions (1, 5, 10, 25, 50 ppb) were prepared by dilution with 90% methanol. GST, GST-SOD1 WT, and GST–SOD1-G93A recombinant proteins bound to GST agarose were incubated overnight with PRG-A-04 (20 μmol/L) in cold chamber (4 °C). The samples were washed three times to remove unbound PRG-A-04 from the proteins. The washed sample pellets were incubated with 90% methanol to elute the protein-bound PRG-A-04. The elutes from each sample were analyzed by LC/MS as follows. Both standard samples and control samples underwent the same sample processing procedures as the test samples. The LC–MS/MS analysis was performed on a Waters UPLC Acquity I-class plus system coupled to a Qtrap 6500 plus system (Sciex, Framingham, MA). An Aeris 3.6 μm 100 × 2.1 mm column (Phenomenex, Torrance, CA) was used for separation. The mobile phase consisted of solvent A (water containing 0.1% formic acid) and solvent B (acetonitrile containing 0.1% formic acid). Gradient elution was achieved as follows: […], 90% A, 10% B; 0.37–6.0 min, 55% A, 45% B; 6.0–7.0 min, 5% A, 95% B; 7.0–10.0 min, 90% A, 10% B. The flow rate was 0.4 mL/min. The column temperature was 40 °C, and the sample injection volume was 10 µL. After each injection, the autosampler syringe was washed with methanol. […]

Plasma stability = assay type: in vitro ADME; conditions: cynomolgus monkey plasma, after 120 min of incubation

SMILES: COc1cc(C=CCOC2Cc3cc4ccc(=O)oc4cc3OC2(C)C)ccc1[N+](=O)[O-] (stereo not shown) [PRG-A-04]
- extension of lifespan of ALS mice (SOD1^G93A−Tg mice; oral administration): up to 3 weeks
- toxicity on oral administration (SOD1^G93A−Tg mice; p.o. twice a week from 9 weeks): without toxicity
- reduction of movement (rotarod latency) at 17 weeks (SOD1^G93A−Tg mice; p.o. twice a week from 9 weeks, dose not stated, vehicle about 73%): 45%
- co-inclusion of WT and MT-SOD1 [1]: disappeared
- extent of metabolism in liver microsomes [2]: moderately metabolized; also recorded: metabolized significantly
- binding affinity to MT-SOD1 versus WT-SOD1 [3]: stronger binding affinity to MT-SOD1 than to WT-SOD1 protein
- stability in plasma (Plasma stability): stable
